Data from patent US10167262B2, “Herbicidal substituted 3-arylpyrazoles” (FMC CORPORATION, priority 2014, dated 2019).

Assays:
Format in all cases: in vivo
[1] = system: corn (Zea mays); assay: Test C pre-/postemergence greenhouse test, plant response rating 0-100; settings: Postemergence
Excerpt: (§1) Seeds of plant species selected from blackgrass (Alopecurus myosuroides), Italian ryegrass (Lolium multiflorum), winter wheat (Triticum aestivum), galium (catchweed bedstraw, Galium aparine), corn (Zea mays), large (Lg) crabgrass (Digitaria sanguinalis), giant foxtail (Setaria faberii), johnsongrass (Sorghum halepense), lambsquarters (Chenopodium album), morningglory (Ipomoea coccinea), yellow nutsedge (Cyperus esculentus), pigweed (Amaranthus retroflexus), ragweed (common ragweed, Ambrosia elatior), soybean (Glycine max), barnyardgrass (Echinochloa crus-galli), oilseed rape (Brassica napus), waterhemp (common waterhemp, Amaranthus rudis), and velvetleaf (Abutilon theophrasti) were planted into a blend of loam soil and sand and treated preemergence with test chemicals formulated in a non-phytotoxic solvent mixture which included a surfactant.
(§2) At the same time, plants selected from these crop and weed species and also winter barley (Hordeum vulgare), bermudagrass (Cynodon dactylon), downy bromegrass (Bromus tectorum), canarygrass (Phalaris minor), cocklebur (common cocklebur, Xanthium strumarium), woolly cupgrass (Eriochloa villosa), deadnettle (henbit deadnettle, Lamium amplexicaule), green foxtail (Setaria viridis), goosegrass (Eleusine indica), surinam grass (Brachiaria decumbens), windgrass (Apera spica-venti), chickweed (common chickweed, Stellaria media), kochia (Kochia scoparia), and wild oat (Avena fatua), were planted in pots containing Redi-Earth® planting medium (Scotts Company, 14111 Scottslawn Road, Marysville, Ohio 43041) comprising spaghnum peat moss, vermiculite, wetting agent and starter nutrients and treated with postemergence applications of test chemicals formulated in the same manner. Plants ranged in height from 2 to 18 cm (1- to 4-leaf stage) for postemergence treatments. Treated plants and controls were maintained in a greenhouse for 13 to 15 days, after which time all species were compared to controls and visually evaluated. Plant response ratings, summarized in Table C, are based on a scale of 0 to 100 where 0 is no effect and 100 is complete control. A dash (-) response means no test result.

[2] = system: velvetleaf (Abutilon theophrasti); assay: as above; settings: Postemergence
Excerpt: as §1, §2

[3] = system: Italian ryegrass (Lolium multiflorum); assay: as above; settings: Postemergence
Excerpt: as §1, §2

[4] = system: ragweed (common ragweed, Ambrosia elatior); assay: as above; settings: Postemergence
Excerpt: as §1, §2

[5] = system: pigweed (Amaranthus retroflexus); assay: as above; settings: Postemergence
Excerpt: as §1, §2

[6] = system: wheat (Triticum aestivum); assay: Test A pre-/postemergence greenhouse herbicide test, visual injury rating 0-100; settings: 1000 g ai/ha
Outline: (§3)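 Seeds sown in loam soil–sand blend; preemergence directed soil spray and, simultaneously, postemergence spray on plants 2 to 10 cm tall at one- to two-leaf stage. Compounds formulated in non-phytotoxic solvent mixture with surfactant. Injury rated visually versus untreated controls after ~10 days in greenhouse.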

[7] = system: morningglory (Ipomoea spp.); assay: as above; settings: 1000 g ai/ha
Outline: as §3

[8] = system: large (Lg) crabgrass (Digitaria sanguinalis); assay: as above; settings: 1000 g ai/ha
Outline: as §3

[9] = system: corn (Zea mays); assay: as above; settings: 1000 g ai/ha
Outline: as §3

[10] = system: velvetleaf (Abutilon theophrasti); assay: as above; settings: 1000 g ai/ha
Outline: as §3

[11] = system: giant foxtail (Setaria faberii); assay: as above; settings: 1000 g ai/ha
Outline: as §3

[12] = system: barnyardgrass (Echinochloa crus-galli); assay: as above; settings: 1000 g ai/ha
Outline: as §3

[13] = system: pigweed (Amaranthus retroflexus); assay: as above; settings: 1000 g ai/ha
Outline: as §3

Fc1ccccc1NN=C(c1ccccc1)c1c[nH]nc1-c1cc(Cl)cc(Cl)c1 [Compound 57]
Plant response rating (0 to 100), Corn ([1]; 31 g ai/ha): 0 | Plant response rating (0 to 100), Corn ([1]; 62 g ai/ha): 0 | Plant response rating (0 to 100), Corn ([1]; 125 g ai/ha): 0 | Plant response rating, Corn ([1]; 250 g ai/ha, scale 0 to 100): 0 | Plant response rating (0 to 100), Velvetleaf ([2]; 62 g ai/ha): 70 | Plant response rating (0 to 100), Velvetleaf ([2]; 125 g ai/ha): 80 | Plant response rating, Velvetleaf ([2]; 250 g ai/ha, scale 0 to 100): 80 | Plant response rating (0 to 100), Ryegrass, Italian ([3]; 62 g ai/ha): 0 | Plant response rating (0 to 100), Ryegrass, Italian ([3]; 125 g ai/ha): 0 | Plant response rating, Ryegrass, Italian ([3]; 250 g ai/ha, scale 0 to 100): 0 | Plant response rating (0 to 100), Ragweed ([4]; 62 g ai/ha): 15 | Plant response rating (0 to 100), Ragweed ([4]; 125 g ai/ha): 65 | Plant response rating, Ragweed ([4]; 250 g ai/ha, scale 0 to 100): 70 | Plant response rating (0 to 100), Pigweed ([5]; 62 g ai/ha): 70 | Plant response rating, Pigweed ([5]; 250 g ai/ha, scale 0 to 100): 75 | Plant response rating (0 to 100 scale), Wheat ([6]; Postemergence): 0 | Plant response rating (0 to 100 scale), Wheat ([6]; Preemergence): 0 | Plant response rating (0 to 100 scale), Morningglory ([7]; Postemergence): 0 | Plant response rating (0 to 100 scale), Morningglory ([7]; Preemergence): 0 | Plant response rating (0 to 100 scale), Crabgrass, Large ([8]; Postemergence): 0 | Plant response rating (0 to 100 scale), Crabgrass, Large ([8]; Preemergence): 0 | Plant response rating (0 to 100 scale), Corn ([9]; Postemergence): 0 | Plant response rating (0 to 100 scale), Corn ([9]; Preemergence): 0 | Plant response rating (0 to 100 scale), Velvetleaf ([10]; Postemergence): 100 | Plant response rating (0 to 100 scale), Velvetleaf ([10]; Preemergence): 80 | Plant response rating (0 to 100 scale), Foxtail, Giant ([11]; Postemergence): 0 | Plant response rating (0 to 100 scale), Foxtail, Giant ([11]; Preemergence): 0 | Plant response rating (0 to 100 scale), Barnyardgrass ([12]; Postemergence): 0 | Plant response rating (0 to 100 scale), Barnyardgrass ([12]; Preemergence): 0 | Plant response rating (0 to 100 scale), Pigweed ([13]; Postemergence): 90 | Plant response rating (0 to 100 scale), Pigweed ([13]; Preemergence): 90
